Data reported in patent US20220000911A1, “COMBINATION OF GOLD COMPLEXES WITH OLAPARIB OR OTHER PARP1/2 INHIBITORS FOR USE IN THE TREATMENT OF CANCER RESISTANT TO SAID PARP1/2 INHIBITORS” (Varsity Pharmaceuticals Limited, priority 2020, published 2022).

Legend:
[1] = tested on: olaparib resistant A2780 ovarian cancer cells; experiment: CellTiter Glo proliferation inhibition, olaparib resistant A2780 cells, single agents; format: cell-based; settings: for IC50 / inhibition at 60 pM / inhibition at 0.00017 µM / inhibition at 0.00051 µM / inhibition at 0.00152 µM / inhibition at 0.00457 µM / inhibition at 0.01372 µM / inhibition at 0.04115 µM / inhibition at 0.12346 µM / inhibition at 0.37037 µM / inhibition at 10 µM / inhibition at 30 µM: Homo sapiens; for IC50: A2780; for inhibition at 60 pM / inhibition at 0.00017 µM / inhibition at 0.00051 µM / inhibition at 0.00152 µM / inhibition at 0.00457 µM / inhibition at 0.01372 µM / inhibition at 0.04115 µM / inhibition at 0.12346 µM / inhibition at 0.37037 µM / inhibition at 10 µM / inhibition at 30 µM / Mean Inhibition (n = 3): olaparib resistant A2780; for inhibition at 60 pM: test conc. 0.06 nM; for inhibition at 60 pM / inhibition at 0.00017 µM / inhibition at 0.00051 µM / inhibition at 0.00152 µM / inhibition at 0.00457 µM / inhibition at 0.01372 µM / inhibition at 0.04115 µM / inhibition at 0.12346 µM / inhibition at 0.37037 µM / inhibition at 10 µM / inhibition at 30 µM: read-out: Mean Inhibition (n = 3); for inhibition at 0.00017 µM: test conc. 0.17 nM; for inhibition at 0.00051 µM: test conc. 0.51 nM; for inhibition at 0.00152 µM: test conc. 1.52 nM; for inhibition at 0.00457 µM: test conc. 4.57 nM; for inhibition at 0.01372 µM: test conc. 13.72 nM; for inhibition at 0.04115 µM: test conc. 41.15 nM; for inhibition at 0.12346 µM: test conc. 123.46 nM; for inhibition at 0.37037 µM: test conc. 370.37 nM; for inhibition at 10 µM: test conc. 10,000 nM; for inhibition at 30 µM: test conc. 30,000 nM; for Maximum inhibition observed in olaparib resistant A2780 cells: concentration range 0.06 nM to 30,000 nM; for Resistance of the olaparib resistant cells to other PARPis: olaparib resistant A2780 cells
Description: A2780 ovarian cancer cells (wild-type “WT”) were cultured in RPMI 1640 Medium with 10% Fetal Bovine Serum (FBS).
To obtain cells resistant to olaparib, the cells were cultured in cell culture medium (RPMI 1640 Medium with 10% FBS) supplemented with 20 μM olaparib for one month in order to generate A2780 cells resistant to olaparib (“R”). After a month the cells were continuously cultured in the cell culture medium (RPMI 1640 Medium with 10% FBS) supplemented with 10 μM olaparib prior to use and for up to two months to maintain the resistance.
The cells were harvested from a flask into cell culture medium (RPMI 1640 Medium with 10% FBS) and then counted. The cells were diluted with culture medium and 40 μL of cell suspension (1000 cells/well) was added into each well of a 384-well cell culture plate. The plate was covered with a lid and left at room temperature without shaking for 30 minutes. The plate was then transferred to an incubator at 37° C. and 5% CO2 and left overnight.
Test compounds were dissolved at a concentration of 30 mM in DMSO to create a stock solution. 45 μL of the stock solution was transferred to a 384 pp-plate. […] The plate was then spun at room temperature at 1,000 RPM for 1 minute. 40 nL of the diluted compound was then transferred from the compound source plate into the cell plate. The cell plate was then covered with a lid and placed in an incubator at 37° C. and 5% CO2 and left for 120 hours. 72 hours after treatment with the compound detection was conducted as discussed below.
CellTiter Glo® reagents were thawed and equilibrated to room temperature. The cell plate was then removed from the incubator and equilibrated at room temperature for 15 minutes. 30 μL of the CellTiter Glo® reagents were then added into each well (at 1:1 to culture medium). The contents was mixed for 2 minutes on an orbital shaker to induce cell lysis and then the plates were allowed to incubate at room temperature for 30 minutes. Luminescence was then measured on an Envision reader (Perkin Elmer).
The inhibition activity was calculated using the following formula:
Inhibition (%)=100×(Lumvehicle−Lumsample)/(Lumvehicle−Lumblank),
where Lumvehicle is the luminescence of cells treated with 0.1% DMSO and Lumblank is cells in the culture medium.
The IC50 was calculated by fitting the curve using Xlfit (v5.3.1.3), equation 201: […]

[2] = tested on: wildtype A2780 ovarian cancer cells; experiment: CellTiter Glo proliferation inhibition, wild-type A2780 cells; format: cell-based; settings: for IC50 / inhibition at 60 pM / inhibition at 0.00017 µM / inhibition at 0.00051 µM / inhibition at 0.00152 µM / inhibition at 0.00457 µM / inhibition at 0.01372 µM / inhibition at 0.04115 µM / inhibition at 0.12346 µM / inhibition at 0.37037 µM / inhibition at 10 µM / inhibition at 30 µM: Homo sapiens; for IC50: A2780; for inhibition at 60 pM / inhibition at 0.00017 µM / inhibition at 0.00051 µM / inhibition at 0.00152 µM / inhibition at 0.00457 µM / inhibition at 0.01372 µM / inhibition at 0.04115 µM / inhibition at 0.12346 µM / inhibition at 0.37037 µM / inhibition at 10 µM / inhibition at 30 µM / Mean Inhibition (n = 3): wildtype A2780; for inhibition at 60 pM: test conc. 0.06 nM; for inhibition at 60 pM / inhibition at 0.00017 µM / inhibition at 0.00051 µM / inhibition at 0.00152 µM / inhibition at 0.00457 µM / inhibition at 0.01372 µM / inhibition at 0.04115 µM / inhibition at 0.12346 µM / inhibition at 0.37037 µM / inhibition at 10 µM / inhibition at 30 µM: read-out: Mean Inhibition (n = 3); for inhibition at 0.00017 µM: test conc. 0.17 nM; for inhibition at 0.00051 µM: test conc. 0.51 nM; for inhibition at 0.00152 µM: test conc. 1.52 nM; for inhibition at 0.00457 µM: test conc. 4.57 nM; for inhibition at 0.01372 µM: test conc. 13.72 nM; for inhibition at 0.04115 µM: test conc. 41.15 nM; for inhibition at 0.12346 µM: test conc. 123.46 nM; for inhibition at 0.37037 µM: test conc. 370.37 nM; for inhibition at 10 µM: test conc. 10,000 nM; for inhibition at 30 µM: test conc. 30,000 nM; for Maximum inhibition observed in wild-type A2780 cells: concentration range 0.06 nM to 30,000 nM
Description: The A2780 cell line is an ovarian cancer cell line that was established from an ovarian endometroid adenocarcinoma tumour. […] It is commonly used as a model to observe the effects of, and test the potency of various chemicals, methods of delivery and treatments for ovarian cancer. […] The cells were diluted with culture medium and 40 μL of cell suspension (1000 cells/well) was added into each well of a 384-well cell culture plate. The plate was covered with a lid and left at room temperature without shaking for 30 minutes. The plate was then transferred to an incubator at 37° C. and 5% CO2 and left overnight. Test compounds were dissolved at a concentration of 30 mM in DMSO to create a stock solution. 45 μL of the stock solution was transferred to a 384 pp-plate. […] The plate was then spun at room temperature at 1,000 RPM for 1 minute. 40 nL of the diluted compound was then transferred from the compound source plate into the cell plate. The cell plate was then covered with a lid and placed in an incubator at 37° C. and 5% CO2 and left for 120 hours. 72 hours after treatment with the compound detection was conducted as discussed below. CellTiter Glo® reagents were thawed and equilibrated to room temperature. The cell plate was then removed from the incubator and equilibrated at room temperature for 15 minutes. 30 μL of the CellTiter Glo® reagents were then added into each well (at 1:1 to culture medium). The contents was mixed for 2 minutes on an orbital shaker to induce cell lysis and then the plates were allowed to incubate at room temperature for 30 minutes. Luminescence was then measured on an Envision reader (Perkin Elmer). The inhibition activity was calculated using the following formula: […]

Which results are given for `NC(=O)c1cccc2cn(-c3ccc([C@@H]4CCCNC4)cc3)nc12` [Niraparib, niraparib]?
IC50 [1]: 17.3 µM; inhibition at 60 pM [1]: -1.98%; inhibition at 0.00017 µM [1]: 0.32%; inhibition at 0.00051 µM [1]: -2.36%; inhibition at 0.00152 µM [1]: 2.95%; inhibition at 0.00457 µM [1]: -0.19%; inhibition at 0.01372 µM [1]: -1.43%; inhibition at 0.04115 µM [1]: 0.1%; inhibition at 0.12346 µM [1]: -0.8%; inhibition at 0.37037 µM [1]: -0.56%; inhibition at 10 µM [1]: 18.9%; inhibition at 30 µM [1]: 43.9%; Maximum inhibition observed in olaparib resistant A2780 cells [1]: 47%; Mean Inhibition (n = 3) ([1]; test conc. 1,111.11 nM): −1.37%; Mean Inhibition (n = 3) ([1]; test conc. 3,333.33 nM): 5.54%; Resistance of the olaparib resistant cells to other PARPis [1]: resistant; IC50 [2]: 2.09 µM; inhibition at 60 pM [2]: 0.39%; inhibition at 0.00017 µM [2]: -3.72%; inhibition at 0.00051 µM [2]: -0.34%; inhibition at 0.00152 µM [2]: 0.03%; inhibition at 0.00457 µM [2]: 0.18%; inhibition at 0.01372 µM [2]: 0.97%; inhibition at 0.04115 µM [2]: -0.46%; inhibition at 0.12346 µM [2]: 3.18%; inhibition at 0.37037 µM [2]: 12.3%; inhibition at 10 µM [2]: 66.2%; inhibition at 30 µM [2]: 73.3%; Maximum inhibition observed in wild-type A2780 cells [2]: 75%; Mean Inhibition (n = 3) ([2]; test conc. 1,111.11 nM): 25.03%; Mean Inhibition (n = 3) ([2]; test conc. 3,333.33 nM): 48.63%

Which IC50 [1] does the source give for `Cn1ncnc1[C@H]1c2n[nH]c(=O)c3cc(F)cc(c23)N[C@@H]1c1ccc(F)cc1` [Talazoparib, talazoparib] here?
Its IC50 is 4.31 µM.

What about the inhibition at 60 pM [1] of the same compound?
The inhibition at 60 pM was 5.28%.

And the inhibition at 0.00017 µM [1]?
The inhibition at 0.00017 µM was -0.08%.

What about the inhibition at 0.00051 µM [1] of the same compound?
Its inhibition at 0.00051 µM is 6.18%.

And the inhibition at 0.00152 µM [1]?
Its inhibition at 0.00152 µM is 2.33%.

And the inhibition at 0.00457 µM [1]?
Its inhibition at 0.00457 µM is 3.63%.

What about the inhibition at 0.01372 µM [1] of the same compound?
The inhibition at 0.01372 µM was 4.9%.

And the inhibition at 0.04115 µM [1]?
Its inhibition at 0.04115 µM is -1.18%.

And the inhibition at 0.12346 µM [1]?
Its inhibition at 0.12346 µM is 2.95%.

What about the inhibition at 0.37037 µM [1] of the same compound?
The inhibition at 0.37037 µM was 9.21%.

What about the inhibition at 10 µM [1] of the same compound?
Its inhibition at 10 µM is 49%.

And the inhibition at 30 µM [1]?
Its inhibition at 30 µM is 64.3%.

What about the “Maximum inhibition observed in olaparib resistant A2780 cells” value [1] of the same compound?
Its value is 66%.

And the “Mean Inhibition (n = 3)” value ([1]; test conc. 1,111.11 nM)?
The value was 15.45%.

And the “Mean Inhibition (n = 3)” value ([1]; test conc. 3,333.33 nM)?
The value was 34.89%.

And the “Resistance of the olaparib resistant cells to other PARPis” value [1]?
The value was “resistant”.

What about the IC50 [2] of the same compound?
The IC50 was 0.019 µM.

And the inhibition at 60 pM [2]?
The inhibition at 60 pM was 0.69%.

What about the inhibition at 0.00017 µM [2] of the same compound?
The inhibition at 0.00017 µM was -0.65%.

And the inhibition at 0.00051 µM [2]?
The inhibition at 0.00051 µM was 2.86%.

What about the inhibition at 0.00152 µM [2] of the same compound?
The inhibition at 0.00152 µM was 6.64%.

And the inhibition at 0.00457 µM [2]?
The inhibition at 0.00457 µM was 23.4%.

And the inhibition at 0.01372 µM [2]?
The inhibition at 0.01372 µM was 35.8%.

What about the inhibition at 0.04115 µM [2] of the same compound?
The inhibition at 0.04115 µM was 46.3%.

What about the inhibition at 0.12346 µM [2] of the same compound?
Its inhibition at 0.12346 µM is 56.3%.

And the inhibition at 0.37037 µM [2]?
The inhibition at 0.37037 µM was 64.5%.

What about the inhibition at 10 µM [2] of the same compound?
The inhibition at 10 µM was 77.6%.

What about the inhibition at 30 µM [2] of the same compound?
Its inhibition at 30 µM is 78.9%.

And the “Maximum inhibition observed in wild-type A2780 cells” value [2]?
The value was 80%.

What about the “Mean Inhibition (n = 3)” value ([2]; test conc. 1,111.11 nM) of the same compound?
The value was 71.38%.

What about the “Mean Inhibition (n = 3)” value ([2]; test conc. 3,333.33 nM) of the same compound?
Its value is 76.54%.
